According to PMC11721942 (Journal of Enzyme Inhibition and Medicinal Chemistry, 2023):
Structures can show the parent of a compound that is named as a salt. Where two headings read alike, the source gives them in different places.

How the values were obtained:
human α-galactosidase A = biological target: T1, human α-galactosidase A (Homo sapiens, UniProt P06280); assay type: biochemical
T1 sequence (P06280 32-429): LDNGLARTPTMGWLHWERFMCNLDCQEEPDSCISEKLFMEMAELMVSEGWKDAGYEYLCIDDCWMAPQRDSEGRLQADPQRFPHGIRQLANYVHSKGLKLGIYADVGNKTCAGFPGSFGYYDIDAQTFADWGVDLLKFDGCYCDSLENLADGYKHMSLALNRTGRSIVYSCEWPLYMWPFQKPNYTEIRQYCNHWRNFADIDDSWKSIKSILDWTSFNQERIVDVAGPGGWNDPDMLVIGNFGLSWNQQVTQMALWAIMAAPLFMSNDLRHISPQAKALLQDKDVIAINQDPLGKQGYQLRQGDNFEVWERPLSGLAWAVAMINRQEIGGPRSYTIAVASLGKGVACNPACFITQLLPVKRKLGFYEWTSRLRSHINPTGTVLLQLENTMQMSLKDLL

yeast α-glucosidase = yeast α-glucosidase (Saccharomyces cerevisiae, UniProt P53341); assay type: biochemical
Sequence of yeast α-glucosidase (P53341 whole entry): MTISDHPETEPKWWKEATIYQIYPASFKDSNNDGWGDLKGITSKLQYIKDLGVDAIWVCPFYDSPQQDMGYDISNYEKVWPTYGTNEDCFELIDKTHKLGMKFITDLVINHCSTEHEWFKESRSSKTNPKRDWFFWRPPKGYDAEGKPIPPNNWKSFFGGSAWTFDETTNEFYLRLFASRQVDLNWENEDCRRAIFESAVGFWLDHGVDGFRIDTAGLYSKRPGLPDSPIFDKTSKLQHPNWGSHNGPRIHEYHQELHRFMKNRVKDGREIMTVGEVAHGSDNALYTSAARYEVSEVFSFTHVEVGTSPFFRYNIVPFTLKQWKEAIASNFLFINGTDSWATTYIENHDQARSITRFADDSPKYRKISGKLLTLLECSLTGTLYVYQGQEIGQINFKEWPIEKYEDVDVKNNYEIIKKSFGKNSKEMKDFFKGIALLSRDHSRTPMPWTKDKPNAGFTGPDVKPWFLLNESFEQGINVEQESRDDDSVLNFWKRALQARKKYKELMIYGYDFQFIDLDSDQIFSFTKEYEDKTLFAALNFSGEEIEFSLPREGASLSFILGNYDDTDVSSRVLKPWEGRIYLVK

A549-ACE2 cells = assay: Cell toxicity assay; assay type: cell-based, human
severe COVID-19 = severe COVID-19 patients; cited from earlier work
[1] = biological target: ER glucosidase II (rat liver); conditions: read-out: Inhibitory activity IC50; cited from earlier work
α-glucosidase in rice = conditions: cited from earlier work
α-glucosidase (yeast) = conditions: cited from earlier work
SARS-CoV-2 [2] = conditions: A549-ACE2 cells; cited from earlier work
[3] = system: influenza haemagglutinin folding process in ER; conditions: cited from earlier work
SARS-CoV-2 [4] = conditions: Vero E6 cells; cited from earlier work

**Q.** For `CN1NC[C@@H](O)[C@@H](O)[C@H]1CO` [Compound 104, (4R,5S,6R)-6-(hydroxymethyl)-1-methylhexahydropyridazine-4,5-diol hydrochloride], which IC50 (human α-galactosidase A) is on record?
**A.** > 100 µM

**Q.** With `CN1C[C@H](O)[C@@H](O)[C@H](O)[C@H]1CO` [Compound 75, (2R,3R,4R,5S)-2-(hydroxymethyl)-1-methylpiperidine-3,4,5-triol] as the compound, how does the IC50 (yeast α-glucosidase) read?
**A.** 572 µM

**Q.** Which “cytotoxicity at EC90 concentrations” value (A549-ACE2 cells) does the source give for `O[C@H]1[C@H]2[C@H](O)CCCN2C[C@H]1O` [Compound 3, swainsonine] here?
**A.** cytotoxicity at EC90 concentrations

**Q.** With `C[C@@H]1C[C@H]2[C@@H]3CCC4=CC(=O)C=C[C@]4(C)[C@@]3(F)[C@@H](O)C[C@]2(C)[C@@]1(O)C(=O)CO` [dexamethasone] as the compound, how does the reduction of mortality (severe COVID-19) read?
**A.** 30%

**Q.** With `OC[C@H]1NC[C@H](O)[C@@H](O)[C@@H]1O` [Compound 2, deoxynojirimycin] as the compound, how does the IC50 [1] read?
**A.** 16 µM

**Q.** With `CN1C[C@H](O)[C@@H](O)[C@@H](O)[C@H]1CO` [Compound 87, (2R,3S,4R,5S)-2-(hydroxymethyl)-1-methylpiperidine-3,4,5-triol] as the compound, how does the IC50 (human α-galactosidase A) read?
**A.** 5.1 µM

**Q.** Which results are given for `OCCN1C[C@H](O)[C@@H](O)[C@H](O)[C@H]1CO` [Compound 8, miglitol]?
**A.** IC50 (α-glucosidase in rice): 0.05 µM; IC50 (yeast α-glucosidase): > 500 µM; IC50 (α-glucosidase (yeast)): > 1000 µM; IC50 (α-glucosidase (yeast); read-out: Inhibitory activity IC50, ref 37): 9880 µM; IC50 (α-glucosidase (yeast); read-out: Inhibitory activity IC50, ref 46): 41.3 µM

**Q.** Which EC50 (SARS-CoV-2 [2]) does the source give for `COCCCCCCCCCN1C[C@H](O)[C@@H](O)[C@H](O)[C@H]1CO` [UV-4] here?
**A.** 4 µM

**Q.** For `OC[C@@H]1[C@@H](O)[C@H](O)[C@@H](O)CN1CCCCCOCC12CC3CC(CC(C3)C1)C2` [Compound 77, (2 R,3R,4R,5S)-1–(5-(adamantan-1-ylmethoxy)pentyl)-2-(hydroxymethyl)piperidine-3,4,5-triol], which “concentration at which inhibition occurred” value [3] is on record?
**A.** 200 µM

**Q.** And the IC50 (yeast α-glucosidase)?
**A.** 67 µM

**Q.** With `CCCCN1C[C@H](O)[C@@H](O)[C@H](O)[C@H]1CO` [Compound 1, N-butyldeoxynojirimycin] as the compound, how does the EC50 (SARS-CoV-2 [4]) read?
**A.** 41 ± 22 µM

**Q.** What about the IC50 (yeast α-glucosidase) of the same compound?
**A.** > 500 µM

**Q.** What about the “Inhibitory activity, % at 1 mM” value (α-glucosidase (yeast); 1 mM) of the same compound?
**A.** 12.7%

**Q.** What about the IC50 [1] of the same compound?
**A.** 13 µM

**Q.** Which IC50 (human α-galactosidase A) does the source give for `OC[C@H]1NNC[C@@H](O)[C@H]1O` [Compound 40, (3 R,4S,5R)-3-(hydroxymethyl)hexahydropyridazine-4,5-diol hydrochloride] here?
**A.** > 100 µM

**Q.** Which IC50 (human α-galactosidase A) does the source give for `CCCCCCCCCN1C[C@H](O)[C@@H](O)[C@@H](O)[C@H]1CO` [Compound 89, (2R,3S,4R,5S)-2-(hydroxymethyl)-1-nonylpiperidine-3,4,5-triol] here?
**A.** > 100 µM

**Q.** Which IC50 (yeast α-glucosidase) does the source give for `OC[C@@H]1[C@@H](O)[C@H](O)[C@@H](O)CN1CCCCCC12CC(C1)C2` [Compound 22, (2 R,3R,4R,5S)-1–(5-(Bicyclo[1.1.1]pentan-1-yl)pentyl)-3,4,5-trihydroxy-2-(hydroxymethyl)piperidin-1-ium chloride] here?
**A.** 218 µM

**Q.** Which IC50 (human α-galactosidase A) does the source give for `CCCCCCCCCN1CC[C@@H](O)[C@@H](O)[C@H]1CO` [Compound 94, (2R,3S,4R)-2-(hydroxymethyl)-1-nonylpiperidine-3,4-diol] here?
**A.** > 100 µM

**Q.** For `CC/C(=C(\c1ccccc1)c1ccc(OCCN(C)C)cc1)c1ccccc1` [Compound 72, tamoxifen], which “cytotoxicity, concentration relative to antiviral EC90” value (A549-ACE2 cells) is on record?
**A.** 100 fold

**Q.** For `CCCC(=O)O[C@H]1CN2CC[C@H](O)[C@@H]2[C@@H](O)[C@@H]1O` [celgosivir], which EC50 (SARS-CoV-2 [4]) is on record?
**A.** 1 ± 0.2 µM

**Q.** With `CCCCCCCCCN1C[C@H](O)[C@@H](O)[C@H](O)[C@H]1CO` [Compound 76, (2R,3R,4R,5S)-2-(hydroxymethyl)-1-nonylpiperidine-3,4,5-triol] as the compound, how does the IC50 (yeast α-glucosidase) read?
**A.** 70 µM
